Data reported in PMC3877555 (Cell Death & Disease, 2013).

Molecular target: HRas-GTP (Homo sapiens, UniProt P01112)
Assay: SPR
Type: binding

Chain of HRas-GTP (P01112 1-186): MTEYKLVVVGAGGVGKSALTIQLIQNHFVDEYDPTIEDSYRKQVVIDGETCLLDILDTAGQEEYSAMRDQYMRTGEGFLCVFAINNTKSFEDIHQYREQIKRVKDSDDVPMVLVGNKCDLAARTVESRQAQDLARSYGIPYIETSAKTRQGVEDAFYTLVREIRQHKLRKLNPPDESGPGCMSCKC

`C[C@@]12C3=CC(=O)OCC3=C[C@H]3OC(=O)[C@](C)([C@H]31)[C@@H](O)[C@H]1O[C@H]12` [WA, Wentilactone A] gave a Kd of 15.7 µM.
